Measured values reported in patent US8722711B2, “Acylbenzene derivative” (Daiichi Sankyo Company, Limited, priority 2010, dated 2014).

System: Male C57/BL6J mice
Assay: Mouse oGTT (Oral Glucose Tolerance Test)
Assay type: in vivo
Conditions: 2 h, fasted 16 to 17 hours, compound 10 mg/kg orally 30 minutes before oral glucose load, AUC from 5 minutes before to 120 minutes after glucose, read-out: percentage decrease in plasma glucose AUC (%) compared with the negative control group
Description: Mouse oGTT (Oral Glucose Tolerance Test)
A dosing preparation (1 mg/mL of each compound) was produced by suspending in a 0.5 w/v % methyl cellulose solution and then grinding in an agate mortar. Male C57/BL6J mice (Charles River Laboratories Japan, Inc.) were purchased at 6 to 8 weeks of age, and then used at 9 to 13 weeks of age. The mice were fasted from the hours of 17:00 to 18:00 on one day before the test day, and the test was started after 16 to 17 hours-fasting. Five mice were used for each group. Before dosing a compound, blood was collected from the tail vein. Thereafter, a suspension of the compound was orally administered at a dosage of 10 mg/kg. The 0.5 w/v % methyl cellulose solution was administered to a negative control group. Twenty five minutes after dosing the compound, blood was collected from the tail vein, and then thirty minutes after dosing the compound, 30 w/v % glucose solution was orally administered at a volume of 10 mL/kg. Blood was collected from the tail vein 15, 30, 60 and 120 minutes after the glucose administration. Each of the blood samples was centrifuged to obtain the plasma, and the plasma glucose level (mg/dL) was measured with a glucose analyzer (Glucoloader GXT, A&T Corp.). The plasma glucose AUC (mg/dL min) in each mouse was calculated using the plasma glucose values at 5 minutes before and 15, 30, 60 and 120 minutes after the glucose administration. The arithmetic mean of the AUC value was calculated for each group and the percentage decrease in plasma glucose AUC (%) compared with the negative control group was calculated as an index of the efficacy.

Row | SMILES | inhibition in vivo at 10 mg/kg
1 | CC[C@@H](Oc1ccc(C(=O)C2CC2)cc1)c1nc(-c2ccc(C(=O)N[C@H](C)CO)c(F)c2)no1 [Example 3, 4-(5-{(1R)-1-[4-(Cyclopropylcarbonyl)phenoxy]propyl}-1,2,4-oxadiazol-3-yl)-2-fluoro-N-[(1R)-2-hydroxy-1-methylethyl]benzamide] | 5 to 20%
2 | CC[C@@H](Oc1ccc(C(=O)C(C)C)cc1)c1nc(-c2ccc(C(=O)N[C@H](C)CO)c(F)c2)no1 [Example 15, 2-Fluoro-N-[(1R)-2-hydroxy-1-methylethyl]-4-{5-[(1R)-1-(4-isobutyrylphenoxy)propyl]-1,2,4-oxadiazol-3-yl}benzamide] | 5 to 20%
3 | C[C@@H](CO)NC(=O)c1ccc(-c2noc([C@@H](C)Oc3ccc(C(=O)C4CC4)cc3)n2)cc1F [Example 8, 4-(5-{(1R)-1-[4-(Cyclopropylcarbonyl)phenoxy]ethyl}-1,2,4-oxadiazol-3-yl)-2-fluoro-N-[(1S)-2-hydroxy-1-methylethyl]benzamide] | 5 to 20%
4 | CC[C@@H](Oc1ccc(C(=O)C2CC2)cc1)c1nc(-c2ccc(C(=O)N[C@@H](C)CO)c(F)c2)no1 [Example 4, 4-(5-{(1R)-1-[4-(Cyclopropylcarbonyl)phenoxy]propyl}-1,2,4-oxadiazol-3-yl)-2-fluoro-N-[(1S)-2-hydroxy-1-methylethyl]benzamide] | 5 to 20%
5 | CC[C@@H](Oc1ccc(C(=O)C2CC2)cc1)c1nc(-c2ccc(C(=O)N[C@H](C)[C@@H](O)CO)c(F)c2)no1 [Example 19, 4-(5-{(1R)-1-[4-(Cyclopropylcarbonyl)phenoxy]propyl}-1,2,4-oxadiazol-3-yl)-N-[(1R,2R)-2,3-dihydroxy-1-methylpropyl]-2-fluorobenzamide] | 5 to 20%
6 | C[C@@H](Oc1ccc(C(=O)C2CC2)cc1)c1nc(-c2ccc(C(=O)NC(CO)CO)c(F)c2)no1 [Example 7, 4-(5-{(1R)-1-[4-(Cyclopropylcarbonyl)phenoxy]ethyl}-1,2,4-oxadiazol-3-yl)-2-fluoro-N-[2-hydroxy-1-(hydroxymethyl)ethyl]benzamide] | > 20%
7 | C[C@@H](Oc1ccc(C(=O)C2CC2)cc1)c1nc(-c2ccc(C(=O)NC3CCCC3O)c(F)c2)no1 (stereo in doubt) [Example 11, 4-(5-{(1R)-1-[4-(Cyclopropylcarbonyl)phenoxy]ethyl}-1,2,4-oxadiazol-3-yl)-2-fluoro-N-[(1S,2S)-2-hydroxycyclopentyl]benzamide] | 5 to 20%
8 | CC[C@@H](Oc1ccc(C(=O)C2CCC2)cc1)c1nc(-c2ccc(C(=O)NC(CO)CO)c(F)c2)no1 [Example 13, 4-(5-{(1R)-1-[4-(Cyclobutylcarbonyl)phenoxy]propyl}-1,2,4-oxadiazol-3-yl)-2-fluoro-N-[2-hydroxy-1-(hydroxymethyl)ethyl]benzamide] | 5 to 20%
9 | C[C@@H](Oc1ccc(C(=O)C2CC2)cc1)c1nc(-c2ccc(C(=O)NC3CCCC3O)c(F)c2)no1 (stereo in doubt) [Example 9, 4-(5-{(1R)-1-[4-(Cyclopropylcarbonyl)phenoxy]ethyl}-1,2,4-oxadiazol-3-yl)-2-fluoro-N-[(1R,2R)-2-hydroxycyclopentyl]benzamide] | 5 to 20%
10 | CC[C@@H](Oc1ccc(C(=O)C2CC2)cc1)c1nc(-c2ccc(C(=O)NC(CO)CO)c(F)c2)no1 [Example 6, 4-(5-{(1R)-1-[4-(Cyclopropylcarbonyl)phenoxy]propyl}-1,2,4-oxadiazol-3-yl)-2-fluoro-N-[2-hydroxy-1-(hydroxymethyl)ethyl]benzamide] | 5 to 20%
11 | C[C@@H](Oc1ccc(C(=O)C2CC2)cc1)c1nc(-c2ccc(C(=O)N[C@H](C)[C@@H](O)CO)c(F)c2)no1 [Example 23, 4-(5-{(1R)-1-[4-(Cyclopropylcarbonyl)phenoxy]ethyl}-1,2,4-oxadiazol-3-yl)-N-[(1R,2R)-2,3-dihydroxy-1-methylpropyl]-2-fluorobenzamide] | > 20%
12 | CC[C@@H](Oc1ccc(C(=O)C2CC2)cc1)c1nc(-c2ccc(C(=O)N[C@@H](CO)C(N)=O)c(F)c2)no1 [Example 2, N-[(1S)-2-Amino-1-(hydroxymethyl)-2-oxoethyl]-4-(5-{(1R)-1-[4-(cyclopropylcarbonyl)phenoxy]propyl}-1,2,4-oxadiazol-3-yl)-2-fluorobenzamide] | > 20%
13 | CC[C@@H](Oc1ccc(C(=O)C(C)(C)C)cc1)c1nc(-c2ccc(C(=O)NC(CO)CO)c(F)c2)no1 [Example 12, 4-(5-{(1R)-1-[4-(2,2-Dimethylpropanoyl)phenoxy]propyl}-1,2,4-oxadiazol-3-yl)-2-fluoro-N-[2-hydroxy-1-(hydroxymethyl)ethyl]benzamide] | 5 to 20%
14 | C[C@H](CO)NC(=O)c1ccc(-c2noc([C@@H](C)Oc3ccc(C(=O)C4CC4)cc3)n2)cc1F [Example 10, 4-(5-{(1R)-1-[4-(Cyclopropylcarbonyl)phenoxy]ethyl}-1,2,4-oxadiazol-3-yl)-2-fluoro-N-[(1R)-2-hydroxy-1-methylethyl]benzamide] | 5 to 20%
15 | CC[C@@H](Oc1ccc(C(=O)C2(F)CC2)cc1)c1nc(-c2ccc(C(=O)NC(CO)CO)c(F)c2)no1 [Example 14, 2-Fluoro-4-{5-[(1R)-1-{4-[(1-fluorocyclopropyl)carbonyl]phenoxy}propyl]-1,2,4-oxadiazol-3-yl}-N-[2-hydroxy-1-(hydroxymethyl)ethyl]benzamide] | 5 to 20%
16 | CC[C@@H](Oc1ccc(C(=O)C(C)C)cc1)c1nc(-c2ccc(C(=O)NC(CO)CO)c(F)c2)no1 [Example 16, 2-Fluoro-N-[2-hydroxy-1-(hydroxymethyl)ethyl]-4-{5-[(1R)-1-(isobutyrylphenoxy)propyl]-1,2,4-oxadiazol-3-yl}benzamide] | 5 to 20%
17 | CC[C@@H](Oc1ccc(C(=O)C2CC2)cc1)c1nc(-c2ccc(C(=O)NC[C@H](O)CO)c(F)c2)no1 [Example 1, 4-(5-{(1R)-1-[4-(Cyclopropylcarbonyl)phenoxy]propyl}-1,2,4-oxadiazol-3-yl)-N-[(2S)-2,3-dihydroxypropyl]-2-fluorobenzamide] | > 20%
18 | CC[C@@H](Oc1ccc(C(=O)C2CC2)cc1)c1nc(-c2ccc(C(=O)NC[C@@H](O)CO)c(F)c2)no1 [Example 5, 4-(5-{(1R)-1-[4-(Cyclopropylcarbonyl)phenoxy]propyl}-1,2,4-oxadiazol-3-yl)-N-[(2R)-2,3-dihydroxypropyl]-2-fluorobenzamide] | 5 to 20%
19 | CC[C@@H](Oc1ccc(C(=O)C2CC2)cc1)c1nc(-c2ccc(C(=O)N[C@H](CO)CCO)c(F)c2)no1 [Example 17, 4-(5-{(1R)-1-[4-(Cyclopropylcarbonyl)phenoxy]propyl}-1,2,4-oxadiazol-3-yl)-2-fluoro-N-[(1S)-3-hydroxy-1-(hydroxymethyl)propyl]benzamide] | 5 to 20%
